Test results published in PubChem BioAssay AID248 (DTP/NCI, 2004).
Several values for one entry are separate records, joined by “and”; a condition that tells them apart may be missing. Identical values can stand only once. Toxic doses and inconclusive results are not listed. Cut-off read from the data, not from the text of the source: active = T/C of 150% or more; inactive = T/C below 125%.

System: L1210 leukemia ip in BDF1 mice, survival T/C
Experiment: NCI In Vivo Anticancer Drug Screen. Data for tumor model L1210 Leukemia (intraperitoneal) in B6D2F1 (BDF1) mice
Conditions: endpoint: mean survival time, higher = longer survival
Method in brief: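 Mice bearing the transplanted tumor received compound or vehicle. Survival of the treated group was divided by that of the vehicle-treated control group to give the ratio.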

[1] = dose: 100.0 mg/kg/injection, schedule: Q01DX009 (ip), vehicle: saline with Tween-80
[2] = dose: 100.0 mg/kg/injection, schedule: Q04DX003 (ip), vehicle: Klucel (hydroxypropylcellulose) (HPC)
[3] = dose: 200.0 mg/kg/injection, schedule: Q01DX009 (ip), vehicle: saline with Tween-80
[4] = dose: 200.0 mg/kg/injection, schedule: Q04DX003 (ip), vehicle: Klucel (hydroxypropylcellulose) (HPC)
[5] = dose: 400.0 mg/kg/injection, schedule: Q01DX009 (ip), vehicle: saline with Tween-80
[6] = dose: 400.0 mg/kg/injection, schedule: Q04DX003 (ip), vehicle: Klucel (hydroxypropylcellulose) (HPC)
[7] = dose: 100.0 mg/kg/injection, schedule: Q04DX003 (ip), vehicle: saline
[8] = dose: 50.0 mg/kg/injection, schedule: Q01DX009 (ip), vehicle: saline with Tween-80
[9] = dose: 100.0 mg/kg/injection, schedule: Q01DX009 (ip), vehicle: Klucel (hydroxypropylcellulose) (HPC)
[10] = dose: 200.0 mg/kg/injection, schedule: Q01DX009 (ip), vehicle: Klucel (hydroxypropylcellulose) (HPC)
[11] = dose: 400.0 mg/kg/injection, schedule: Q01DX009 (ip), vehicle: Klucel (hydroxypropylcellulose) (HPC)
[12] = dose: 100.0 mg/kg/injection, schedule: Q04DX002 (ip), vehicle: Klucel (hydroxypropylcellulose) (HPC)
[13] = dose: 200.0 mg/kg/injection, schedule: Q04DX002 (ip), vehicle: Klucel (hydroxypropylcellulose) (HPC)
[14] = dose: 400.0 mg/kg/injection, schedule: Q04DX002 (ip), vehicle: Klucel (hydroxypropylcellulose) (HPC)
[15] = dose: 100.0 mg/kg/injection, schedule: Q01DX001 (ip), vehicle: carboxymethylcellulose (CMC)
[16] = dose: 200.0 mg/kg/injection, schedule: Q01DX001 (ip), vehicle: carboxymethylcellulose (CMC)
[17] = dose: 400.0 mg/kg/injection, schedule: Q01DX001 (ip), vehicle: carboxymethylcellulose (CMC)
[18] = dose: 100.0 mg/kg/injection, schedule: Q01DX009 (ip), vehicle: carboxymethylcellulose (CMC)
[19] = dose: 200.0 mg/kg/injection, schedule: Q01DX009 (ip), vehicle: carboxymethylcellulose (CMC)
[20] = dose: 400.0 mg/kg/injection, schedule: Q01DX009 (ip), vehicle: carboxymethylcellulose (CMC)

Measured: T/C

CC1(C)CCC2(C)CC=C3OC(=O)CCC3(C)C2C1 (stereo not drawn)
inactive: [1] 92 % of control | [2] 102 % of control | [3] 89 % of control | [4] 98 % of control | [5] 94 % of control | [6] 94 % of control

O=[N+]([O-])c1ccc(C2OC(c3ccncc3)=NC2CO)cc1 (stereo not drawn)
inactive: dose: 12.5 mg/kg/injection, schedule: Q04DX002 (ip), vehicle: saline 90 % of control | dose: 25.0 mg/kg/injection, schedule: Q04DX002 (ip), vehicle: saline 97 % of control | dose: 50.0 mg/kg/injection, schedule: Q01DX009 (ip), vehicle: saline 96 % of control | dose: 50.0 mg/kg/injection, schedule: Q04DX002 (ip), vehicle: saline 90 % of control | dose: 75.0 mg/kg/injection, schedule: Q01DX009 (ip), vehicle: saline 102 % of control | dose: 115.0 mg/kg/injection, schedule: Q01DX009 (ip), vehicle: saline 101 % of control

CCCCCCOC(=O)C[n+]1cccc(C(N)=O)c1
inactive: [7] 95 % of control

CC(C)(C)c1ccccc1C(N)=O
inactive: dose: 100.0 mg/kg/injection, schedule: Q04DX003 (ip), vehicle: other 101 % of control | dose: 200.0 mg/kg/injection, schedule: Q04DX003 (ip), vehicle: other 109 % of control | dose: 400.0 mg/kg/injection, schedule: Q04DX003 (ip), vehicle: other 91 % of control

O=C1c2ccccc2Cc2ccc(-c3ccccc3)cc21
inactive: [8] 92 % of control | [1] 95 % of control | [3] 89 % of control

Cc1cc2c(cc1C)C1(c3ccccc3)OC2(c2ccccc2)C(C(=O)c2ccccc2)C1C(=O)c1ccccc1 (stereo not drawn)
inactive: [8] 91 % of control | [1] 91 % of control | [3] 91 % of control

CCOC(=O)/C(C)=C\C1C(C)=CCCC1(C)C (stereo not drawn)
inactive: [9] 104 % of control | [10] 102 % of control | [11] 96 % of control

O=[N+]([O-])c1ccc(C=Nc2ccc(C(c3ccccc3)(c3ccccc3)c3ccccc3)cc2)s1
inactive: [2] 95 % of control | [4] 97 % of control | [6] 93 % of control

COc1ccc(C)cc1NC(=O)Nc1ccco1
inactive: [1] 97 % of control | [3] 92 % of control | [5] 90 % of control

CCCCCCC#CC(=O)OCCCCC
inactive: dose: 100.0 mg/kg/injection, schedule: Q04DX002 (ip), vehicle: saline with Tween-80 96 % of control | dose: 200.0 mg/kg/injection, schedule: Q04DX002 (ip), vehicle: saline with Tween-80 100 % of control | dose: 400.0 mg/kg/injection, schedule: Q04DX002 (ip), vehicle: saline with Tween-80 96 % of control

COc1ccc(NC(=O)c2ccc(C(=O)Nc3ccc(OC)cc3OC)cc2)c(OC)c1
inactive: [12] 90 % of control | [13] 93 % of control and 102 % of control | [14] 93 % of control and 91 % of control

O=c1[nH][nH]c(=O)c2c1nc(SCc1ccccc1Br)n2Cc1ccccc1
inactive: [15] 95 % of control | [16] 97 % of control | [17] 97 % of control

O=C1CCCN1C1=CC2=C(CCc3ccccc32)S(=O)(=O)O1
inactive: dose: 100.0 mg/kg/injection, schedule: Q01DX009 (ip), vehicle: saline 90 % of control | [7] 100 % of control | dose: 200.0 mg/kg/injection, schedule: Q01DX009 (ip), vehicle: saline 90 % of control | dose: 200.0 mg/kg/injection, schedule: Q04DX003 (ip), vehicle: saline 94 % of control | dose: 400.0 mg/kg/injection, schedule: Q01DX009 (ip), vehicle: saline 95 % of control | dose: 400.0 mg/kg/injection, schedule: Q04DX003 (ip), vehicle: saline 108 % of control

CC(=O)Nc1ccccc1F
inactive: [9] 105 % of control | [2] 101 % of control | [10] 105 % of control | [4] 102 % of control | [11] 103 % of control | [6] 95 % of control

O=NN(Cc1ccc(Cl)cc1)Nc1ncc[nH]1
inactive: [12] 101 % of control | [13] 96 % of control | [14] 93 % of control

CC(=O)OC1CCCC23CC(CC12)C(C)(C)C3Br (stereo not drawn)
inactive: [9] 95 % of control | [2] 97 % of control | [10] 100 % of control | [4] 93 % of control | [11] 97 % of control | [6] 95 % of control

CC/C(C)=C\CC/C(C)=C\COc1ccccc1[N+](=O)[O-]
inactive: [18] 100 % of control | [19] 100 % of control | [20] 98 % of control

COC(=O)c1ccccc1NC(=O)c1cccc(Cl)c1
inactive: [9] 114 % of control | [10] 118 % of control | [11] 102 % of control

CCOC(=O)CC(C(=O)O)=C(c1ccccc1)c1ccccc1
inactive: dose: 50.0 mg/kg/injection, schedule: Q01DX001 (ip), vehicle: carboxymethylcellulose (CMC) 98 % of control | [15] 98 % of control | [16] 93 % of control | [17] 93 % of control

COc1ccc(/C=N\NC(=O)c2ccc(Cl)c(Cl)c2)cc1OC
inactive: [8] 117 % of control | [1] 93 % of control | [3] 90 % of control

CC(=O)OC1COC(SC(C)=O)C(OC(C)=O)C1OC(C)=O (stereo not drawn)
inactive: dose: 100.0 mg/kg/injection, schedule: Q01DX001 (ip), vehicle: other 95 % of control | dose: 200.0 mg/kg/injection, schedule: Q01DX001 (ip), vehicle: other 104 % of control | dose: 400.0 mg/kg/injection, schedule: Q01DX001 (ip), vehicle: other 95 % of control

CC(=O)Nc1ccc(NC(=O)Nc2ccccc2C(F)(F)F)cc1
inactive: [15] 94 % of control and 90 % of control | [18] 93 % of control and 97 % of control | dose: 100.0 mg/kg/injection, schedule: Q04DX002 (ip), vehicle: carboxymethylcellulose (CMC) 95 % of control and 102 % of control | dose: 100.0 mg/kg/injection, schedule: Q04DX003 (ip), vehicle: carboxymethylcellulose (CMC) 100 % of control and 117 % of control | [16] 94 % of control and 90 % of control | [19] 94 % of control and 96 % of control | dose: 200.0 mg/kg/injection, schedule: Q04DX002 (ip), vehicle: carboxymethylcellulose (CMC) 96 % of control and 92 % of control | dose: 200.0 mg/kg/injection, schedule: Q04DX003 (ip), vehicle: carboxymethylcellulose (CMC) 95 % of control and 99 % of control | [17] 97 % of control | [20] 98 % of control and 91 % of control | dose: 400.0 mg/kg/injection, schedule: Q04DX002 (ip), vehicle: carboxymethylcellulose (CMC) 86 % of control | dose: 400.0 mg/kg/injection, schedule: Q04DX003 (ip), vehicle: carboxymethylcellulose (CMC) 91 % of control

CCCCC(O)(C(C)C)C(C)C
inactive: [15] 102 % of control | [16] 98 % of control | [17] 98 % of control

O=C1c2ccccc2C(=O)N1CC(O)COc1ccc(Cl)cc1 (stereo not drawn)
inactive: [2] 92 % of control | [4] 92 % of control | [6] 91 % of control

C[N+]1(C)CCC[N+](C)(C)CC1
inactive: dose: 55.0 mg/kg/injection, schedule: Q01DX Z (ip), vehicle: saline 95 % of control | dose: 83.0 mg/kg/injection, schedule: Q01DX Z (ip), vehicle: saline 98 % of control | dose: 125.0 mg/kg/injection, schedule: Q01DX Z (ip), vehicle: saline 103 % of control
